Assay results taken from BindingDB's records for doi:10.1021/jm0310479 (Roche Diagnostics, 2004).
Counter-ions that a name gives are not always drawn.

What was measured:
[1] = target: RAC-alpha serine/threonine-protein kinase (Homo sapiens, UniProt P31749); experiment: PKB In Vitro Kinase Assay; conditions: pH 7.5; 22 °C
Protocol: An ELISA-based assay has been developed for the serine/threonine kinase, PKB-alpha. The assay utilizes an N-terminally biotinylated substrate peptide. When this substrate is phosphorylated by the kinase, the product is recognized by a substrate/sequence-specific antibody, which binds to particular phosphorylated serine residues. […] Calculation of IC50 values was performed with ActivityBase.

[2] = target: cAMP-dependent protein kinase catalytic subunit alpha (Bos taurus, UniProt P00517); experiment: Fluorescence Polarization-based Assay; conditions: pH 7.2; 22 °C
Protocol: In this assay, a fluorescent phosphopeptide tracer and the nonfluorescent phosphopeptides generated during a PKA reaction compete for binding to an antiphosphoserine antibody. In a reaction mixture containing phosphopeptide product, the fluorescent tracer is displaced from the antibody and the emission signal becomes depolarized. Enzymatic activity was measured by detection of fluorescence polarity in a Victor 2 reader (Wallac, Finland). […] Calculation of IC50 values was performed with ActivityBase.

RAC-alpha serine/threonine-protein kinase, sequence (P31749 whole entry): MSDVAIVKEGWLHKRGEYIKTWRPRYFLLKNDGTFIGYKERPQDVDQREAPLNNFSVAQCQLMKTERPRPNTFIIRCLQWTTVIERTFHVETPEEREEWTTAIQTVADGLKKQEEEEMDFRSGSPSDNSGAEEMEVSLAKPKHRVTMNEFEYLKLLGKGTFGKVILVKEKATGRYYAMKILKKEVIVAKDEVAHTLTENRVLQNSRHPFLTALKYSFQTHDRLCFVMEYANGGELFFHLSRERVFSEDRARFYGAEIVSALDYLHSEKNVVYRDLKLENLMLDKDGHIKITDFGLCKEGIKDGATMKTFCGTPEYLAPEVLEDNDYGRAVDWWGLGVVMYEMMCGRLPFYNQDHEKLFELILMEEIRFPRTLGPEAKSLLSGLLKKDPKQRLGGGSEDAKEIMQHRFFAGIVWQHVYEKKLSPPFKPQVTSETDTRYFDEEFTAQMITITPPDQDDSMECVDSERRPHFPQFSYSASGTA

| IC50 [1] [µM] | IC50 [2] [µM] | Structure (SMILES) |
| --- | --- | --- |
| 0.355 |  | COc1ccc(O)c(C(=O)c2ccc(CO[C@@H]3CCCNC[C@H]3NC(=O)c3ccncc3)cc2)c1F [N-((3R,4R)-4-{[4-(2-fluoro-6-hydroxy-3-methoxybenzoyl)benzyl]oxy}azepan-3-yl)isonicotinamide dihydrochloride] |
| 25 | 45 | COc1ccc(O)c(C(=O)c2ccc(NC[C@@H]3CCCNC[C@H]3NC(=O)c3ccncc3)cc2)c1F [N-[(3S,4S)-4-[({4-[(2-fluoro-6-hydroxy-3-methoxyphenyl)carbonyl]phenyl}amino)methyl]azepan-3-yl]pyridine-4-carboxamide trihydrochloride] |
